# According to article PMC13385394, “Cryo-EM Structure of the TRPC1/5 Heteromer Enables Design of Antidepressant and Anxiolytic Drug with Reduced Side Effects” (Nature Communications, 2026):
# pIC50: −log10 of the molar value. “And” between values parts separate entries of the source, which are not always exact repeats. Identical values can stand only once. Like-named read-outs stand apart in the source and are kept apart here.
# Columns and labels:
# mCPP-induced anxiety = assay: Marble-burying test (MBT), mCPP-induced anxiety model; conditions: mCPP mice; single dose
# TRPC6 homomer = biological target: T1, TRPC6 homomer (Homo sapiens, UniProt Q9Y210); assay: Whole-cell patch-clamp, inhibition of TRPC6 homomer; assay type: cell-based
# T1 construct: expressed in transfected cells
# T1 sequence (Q9Y210 1-931): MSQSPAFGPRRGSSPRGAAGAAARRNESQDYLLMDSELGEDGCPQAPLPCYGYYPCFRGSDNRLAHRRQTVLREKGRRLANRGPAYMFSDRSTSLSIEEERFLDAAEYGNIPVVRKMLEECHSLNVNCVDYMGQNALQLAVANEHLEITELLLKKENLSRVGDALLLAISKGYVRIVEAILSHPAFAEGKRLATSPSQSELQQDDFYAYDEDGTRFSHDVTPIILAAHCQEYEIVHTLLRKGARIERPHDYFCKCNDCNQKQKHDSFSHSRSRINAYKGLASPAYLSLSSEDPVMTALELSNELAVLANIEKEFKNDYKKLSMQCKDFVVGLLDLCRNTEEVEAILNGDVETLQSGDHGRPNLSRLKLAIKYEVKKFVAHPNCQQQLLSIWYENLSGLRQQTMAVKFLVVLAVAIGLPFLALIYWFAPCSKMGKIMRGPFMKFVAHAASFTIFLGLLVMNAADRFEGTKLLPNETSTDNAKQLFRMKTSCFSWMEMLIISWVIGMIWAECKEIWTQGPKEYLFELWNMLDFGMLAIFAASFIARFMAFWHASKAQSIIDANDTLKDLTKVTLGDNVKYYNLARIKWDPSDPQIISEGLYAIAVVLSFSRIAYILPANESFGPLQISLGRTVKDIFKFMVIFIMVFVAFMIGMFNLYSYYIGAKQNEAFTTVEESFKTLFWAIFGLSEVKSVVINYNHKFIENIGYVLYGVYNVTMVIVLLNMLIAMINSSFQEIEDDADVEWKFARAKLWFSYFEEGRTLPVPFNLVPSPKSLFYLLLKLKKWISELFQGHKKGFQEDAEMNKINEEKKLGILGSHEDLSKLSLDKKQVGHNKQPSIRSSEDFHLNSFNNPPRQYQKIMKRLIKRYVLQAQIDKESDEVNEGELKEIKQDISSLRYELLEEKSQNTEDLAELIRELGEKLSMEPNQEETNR
# From the text: Error bars represent the standard error of the mean (SEM, n = 6 independent
# Error bars represent the standard error of the
# 110 mean (SEM, n = 5 independent cells).
# TRPC1/5 heteromers = biological target: T2, TRPC1/5 heteromers (Homo sapiens, UniProt P48995+Q9UL62); assay: Whole-cell patch-clamp, inhibition of EA-activated TRPC1/5 heteromers; assay type: cell-based
# T2 construct: wild type plasmids full-length hTRPC1 (WT) and full-length hTRPC5 (WT); expressed in transfected cells; host or cells: HEK293T
# T2 sequence (P48995 whole entry): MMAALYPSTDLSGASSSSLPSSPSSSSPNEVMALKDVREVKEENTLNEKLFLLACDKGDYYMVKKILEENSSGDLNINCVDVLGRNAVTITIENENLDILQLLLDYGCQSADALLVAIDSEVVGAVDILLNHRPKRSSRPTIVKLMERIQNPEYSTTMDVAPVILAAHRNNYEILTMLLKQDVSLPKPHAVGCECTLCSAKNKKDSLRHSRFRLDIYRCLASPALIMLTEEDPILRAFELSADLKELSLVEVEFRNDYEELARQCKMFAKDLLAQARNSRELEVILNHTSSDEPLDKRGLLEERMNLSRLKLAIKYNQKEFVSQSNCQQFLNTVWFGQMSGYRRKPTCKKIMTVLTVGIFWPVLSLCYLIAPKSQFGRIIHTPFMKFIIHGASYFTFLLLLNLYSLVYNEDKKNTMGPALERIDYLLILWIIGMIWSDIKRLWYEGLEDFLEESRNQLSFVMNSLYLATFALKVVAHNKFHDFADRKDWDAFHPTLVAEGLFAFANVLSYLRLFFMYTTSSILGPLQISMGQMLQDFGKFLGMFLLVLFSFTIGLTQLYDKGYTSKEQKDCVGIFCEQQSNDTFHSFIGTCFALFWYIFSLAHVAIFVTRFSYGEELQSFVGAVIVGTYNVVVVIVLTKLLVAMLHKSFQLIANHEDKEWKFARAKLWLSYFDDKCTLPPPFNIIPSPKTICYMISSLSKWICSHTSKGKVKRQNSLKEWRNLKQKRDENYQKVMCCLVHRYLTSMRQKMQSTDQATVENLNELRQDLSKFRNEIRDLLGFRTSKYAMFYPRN
# T2 sequence (Q9UL62 whole entry): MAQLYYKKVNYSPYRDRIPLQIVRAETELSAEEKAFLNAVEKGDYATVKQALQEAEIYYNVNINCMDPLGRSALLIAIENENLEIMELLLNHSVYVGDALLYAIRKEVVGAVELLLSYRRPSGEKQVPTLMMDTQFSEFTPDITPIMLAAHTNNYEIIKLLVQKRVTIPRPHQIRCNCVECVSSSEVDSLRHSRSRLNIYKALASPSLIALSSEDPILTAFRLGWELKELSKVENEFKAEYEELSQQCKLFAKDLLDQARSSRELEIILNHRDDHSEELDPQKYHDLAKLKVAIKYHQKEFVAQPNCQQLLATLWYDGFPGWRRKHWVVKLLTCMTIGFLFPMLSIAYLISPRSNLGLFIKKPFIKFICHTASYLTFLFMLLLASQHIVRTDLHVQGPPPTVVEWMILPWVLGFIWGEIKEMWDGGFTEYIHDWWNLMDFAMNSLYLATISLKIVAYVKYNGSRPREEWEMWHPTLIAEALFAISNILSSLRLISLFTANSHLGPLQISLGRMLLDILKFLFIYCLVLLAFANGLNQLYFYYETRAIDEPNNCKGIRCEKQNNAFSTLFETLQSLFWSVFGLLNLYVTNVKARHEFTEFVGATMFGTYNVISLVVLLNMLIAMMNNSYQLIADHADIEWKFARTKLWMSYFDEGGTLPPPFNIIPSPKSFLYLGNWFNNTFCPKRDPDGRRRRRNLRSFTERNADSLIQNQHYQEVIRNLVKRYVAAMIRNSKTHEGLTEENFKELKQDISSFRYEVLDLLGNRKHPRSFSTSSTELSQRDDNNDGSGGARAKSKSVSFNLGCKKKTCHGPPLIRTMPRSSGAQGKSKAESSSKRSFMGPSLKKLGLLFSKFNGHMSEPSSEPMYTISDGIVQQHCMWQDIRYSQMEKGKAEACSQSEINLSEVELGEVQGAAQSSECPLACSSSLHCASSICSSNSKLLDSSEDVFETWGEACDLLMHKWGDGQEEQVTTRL
# From the text: The full-length hTRPC5 or truncated mTRPC5, and the full-length hTRPC1 constructs was respectively co-transfected in a plasmid ration 1:3 (w/w) into HEK293T cells (from the ATCC). As previously described, a mCherry was inserted into TRPC5 constructs and a GFP was inserted at the C terminus of TRPC1. Therefore, Cells with red and green fluorescence were selected for whole-cell patch recordings (HEKA EPC10 amplifier, […] software (https://www.heka.com/downloads/downloads_main.html#down_patchmaster)). A 1-s ramp protocol from −100 to +100 mV was applied at a frequency of 0.2 Hz. Signals were sampled at 50 kHz and filtered at 2.9 kHz. The pipette solution contained 130 mM CsCl, 1 mM MgCl2, 5.7 mM CaCl2, 10 mM EGTA, and 10 mM Hepes (calculated free Ca^2+, 200 nM), and the pH was titrated to 7.2 using CsOH[40]. The standard bath solution contained 140 mM NaCl, 5 mM KCl, 1 mM MgCl2, 2 mM CaCl2, 10 mM Hepes, and 10 mM D-glucose, and the pH was adjusted to 7.4 with NaOH (1 M). The recording chamber (150 μL) was perfused at a rate of ~2 mL/min. All recordings were performed at room temperature.
# [1] = system: CUMS-induced depressive-like behaviors; assay: Sucrose preference test (SPT) in CUMS model; assay type: in vivo, mouse; conditions: CUMS mice
# Protocol: The stressors included food and water deprivation, foot shock, wet bedding, cage tilting, restraint, shaking, and olfactory stimulation. These seven stressors were randomly applied each week to ensure unpredictability. The stress induction was maintained continuously for 28 days. Following model establishment, the tail suspension test (TST) was performed to confirm the successful induction of depressive-like behaviors. Mice that met the criteria were randomly assigned to experimental groups.
# Acute Treatment: A single dose of the test compound was administered, followed by the sucrose preference test (SPT).
# Chronic Treatment: Mice were treated daily for 14 consecutive days. The SPT was conducted on day 11, and the forced swimming test (FST) was performed on day 14.
# Mice were acclimated to 1% sucrose solution and plain water for 2 days. On the second day, the positions of the sucrose solution and water were swapped to eliminate positional bias. […] Mice were provided with pre-weighed 1% sucrose solution and plain water. […] Sucrose preference (%) was calculated as Sucrose Preference = A/(A + B)×100.
# [2] = Pharmacokinetics in mouse after p.o. and i.v. administration; assay type: in vivo; conditions: for AUC(0-inf): read-out: AUCINF_obs; for clearance: read-out: CL_obs; for MRT inf: read-out: MRTINF_obs
# [3] = C57BL/6J, mouse, in vivo, iv, 2 mg/kg, mouse 2mg/kg i.v., Mean
# [4] = C57BL/6J, mouse, in vivo, iv, 2 mg/kg, mouse 2mg/kg i.v., individual animals 4-6
# [5] = C57BL/6J, mouse, in vivo, po, 10 mg/kg, mouse 10mg/kg p.o., Mean
# [6] = C57BL/6J, mouse, in vivo, po, 10 mg/kg, mouse 10mg/kg p.o., individual animals 1-3
# [7] = mouse 2mg/kg i.v., individual animals 4-6, listed as JD03-02, 2 mg/kg
# [8] = mouse 10mg/kg p.o., individual animals 1-3, listed as JD03-02, 10 mg/kg
smiles,measurement,setting,value
CN(C)CCCCn1c(=O)c2c(nc(Oc3cccc(Cl)c3)n2Cc2ccc(Cl)cc2)n(C)c1=O [H08],MBT number of marbles buried,mCPP-induced anxiety,reducing the number of marbles buried
same,pIC50,TRPC6 homomer,< 5.00
same,inhibition at 10 µM,TRPC6 homomer; 10 μM,30 to 40%
same,inhibition of TRPC6,TRPC6 homomer; 10 μM,no more than 40%
same,"Hill coefficient, TRPC1/C5 heteromer",TRPC1/5 heteromers; combined fitting with additional 0.01 nM and 0.001 nM points (rebuttal),approximately 0.33
same,pIC50,"TRPC1/5 heteromers; whole-cell patch-clamp, read-out: IC50, TRPC1/C5",9.62 and 9.70
same,"sucrose intake (SPT), repeated dosing","[1]; 11 days once-daily oral, vs vehicle",significantly improved sucrose intake
same,"sucrose preference (SPT), single dose","[1]; single oral dose, JD03-02 30 mg/kg, 30 mg/kg",significantly increased sucrose preference
same,Tmax,"[2]; C57BL/6J, in vivo, po, mouse 10mg/kg p.o., Mean",1 h
same,AUC(0-t),[2]; [3],478 ng·h/mL
same,half-life,[2]; [3],3.09 h
same,AUC(0-inf),[2]; [3],519 ng·h/mL
same,clearance,[2]; [3],65.9 mL/min/kg
same,MRT inf,[2]; [3],3.94 h
same,AUC(0-t),[2]; [4],385 ng·h/mL
same,half-life,[2]; [4],3.52 h
same,AUC(0-inf),[2]; [4],469 ng·h/mL
same,clearance,[2]; [4],71 mL/min/kg
same,MRT inf,[2]; [4],4.46 h
same,AUC(0-t),[2]; [5],1190 ng·h/mL
same,half-life,[2]; [5],2.9 h
same,AUC(0-inf),[2]; [5],1220 ng·h/mL
same,Cmax,"[2]; C57BL/6J, mouse, in vivo, po, 10 mg/kg, mouse 10mg/kg p.o., Mean, read-out: Cmax",201 ng/mL
same,MRT inf,[2]; [5],5.27 h
same,half-life,[2]; [6],2.86 h
same,AUC(0-inf),[2]; [6],1300 ng·h/mL
same,Cmax,"[2]; C57BL/6J, mouse, in vivo, po, 10 mg/kg, mouse 10mg/kg p.o., individual animals 1-3, read-out: Cmax",256 ng/mL
same,MRT inf,[2]; [6],4.73 h
same,Kp,"[2]; brain and heart plasma, po, 10 mg/kg, mouse p.o., read-out: AUClast brain/AUClast heart plasma (brain-to-plasma ratio, B/P)",0.67
same,Kp at 4 h,"[2]; brain and heart plasma, po, 10 mg/kg, mouse p.o., read-out: Clast brain/Cmax heart plasma",0.83
same,bioavailability,"[2]; in vivo, oral, mouse 10mg/kg p.o. vs 2mg/kg i.v., read-out: F (oral bioavailability)",49.8%
same,Vss_obs,"[2]; mouse 2mg/kg i.v., Mean",15.296 L/kg
same,AUCINF_obs,[2]; [7],447 ng·h/mL and 640 ng·h/mL
same,AUClast,[2]; [7],416 ng·h/mL and 634 ng·h/mL
same,CL_obs,[2]; [7],74.6 mL/min/kg and 52.1 mL/min/kg
same,MRTINF_obs,[2]; [7],2.895 h and 4.460 h
same,T1/2,[2]; [7],2.06 h and 3.69 h
same,Vss_obs,[2]; [7],18.984 L/kg and 12.955 L/kg and 13.949 L/kg
same,AUCINF_obs,[2]; [8],1549 ng·h/mL and 800 ng·h/mL
same,AUClast,[2]; [8],1294 ng·h/mL and 1532 ng·h/mL and 746 ng·h/mL
same,Cmax,[2]; [8],205 ng/mL and 143 ng/mL
same,MRTINF_obs,[2]; [8],6.50 h and 4.58 h
same,T1/2,[2]; [8],3.35 h and 2.48 h
same,AUClast,"[2]; mouse p.o., brain",524 ng·h/g
same,Cmax,"[2]; mouse, brain, po, 10 mg/kg, mouse p.o., brain, read-out: Cmax",265 ng/g
same,concentration at 4 h,"[2]; mouse, brain, single 10 mg/kg oral dose, at 4 hours",~513 nM
same,AUC(0-t),"[2]; mouse, heart plasma, po, 10 mg/kg, mouse p.o.",778 ng·h/mL
same,Cmax,"[2]; mouse, heart plasma, po, 10 mg/kg, mouse p.o., heart plasma, read-out: Cmax",318 ng/mL
same,AUC(0-t),"[2]; mouse, portal vein plasma, po, 10 mg/kg, mouse p.o.",1330 ng·h/mL
same,Cmax,"[2]; mouse, portal vein plasma, po, 10 mg/kg, mouse p.o., portal vein plasma, read-out: Cmax",493 ng/mL
same,Tmax,"[2]; po, 10 mg/kg, mouse p.o., brain",4 h
same,Tmax,"[2]; po, 10 mg/kg, mouse p.o., heart plasma",4 h
same,Tmax,"[2]; po, 10 mg/kg, mouse p.o., portal vein plasma",0.25 h
